Data: PubChem BioAssay (NCI)
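How tested: cells in 96-well plates exposed to compound for 48 hours at five concentrations. At the GI50, growth is halved. TGI is the concentration that stops growth completely.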

Tests used:
Assay in all cases: NCI anticancer screen, dose series, 48 h
[1] = test system: HCT-116 colon
[2] = test system: DU-145 prostate
[3] = test system: NCI/ADR-RES ovarian
[4] = test system: OVCAR-8 ovarian
[5] = test system: SK-MEL-5 melanoma
[6] = test system: NCI-H460 lung
[7] = test system: HL-60(TB) leukemia
[8] = test system: MDA-MB-468 breast
[9] = test system: LOX IMVI melanoma
[10] = test system: MCF7 breast
[11] = test system: SK-MEL-2 melanoma
[12] = test system: NCI-H522 lung
[13] = test system: TK-10 renal
[14] = test system: SF-539 CNS
[15] = test system: SF-268 CNS
[16] = test system: COLO 205 colon
[17] = test system: MDA-MB-435
[18] = test system: SW-620 colon
[19] = test system: ACHN renal
[20] = test system: SN12C renal
[21] = test system: SNB-75 CNS
[22] = test system: UACC-257 melanoma
[23] = test system: HS 578T breast
[24] = test system: SK-MEL-28 melanoma
[25] = test system: NCI-H226 lung
[26] = test system: BT-549 breast
[27] = test system: M14 melanoma
[28] = test system: MALME-3M melanoma
[29] = test system: EKVX NSCLC
[30] = test system: CCRF-CEM leukemia
[31] = test system: 786-0 renal
[32] = test system: NCI-H23 lung
[33] = test system: T-47D breast
[34] = test system: MDA-MB-231 breast
[35] = test system: UACC-62 melanoma
[36] = test system: MOLT-4 leukemia
[37] = test system: RXF 393 renal
[38] = test system: SF-295 CNS
[39] = test system: U251 CNS
[40] = test system: OVCAR-3 ovarian
[41] = test system: IGROV1 ovarian
[42] = test system: HT29 colon
[43] = test system: SR leukemia
[44] = test system: OVCAR-5 ovarian
[45] = test system: HOP-92 NSCLC
[46] = test system: CAKI-1 renal
[47] = test system: SNB-19 CNS
[48] = test system: A498 renal
[49] = test system: PC-3 prostate
[50] = test system: KM12 colon
[51] = test system: K-562 leukemia
[52] = test system: A549 NSCLC
[53] = test system: OVCAR-4 ovarian
[54] = test system: HOP-62 NSCLC
[55] = test system: UO-31 renal
[56] = test system: RPMI-8226 leukemia
[57] = test system: HCC-2998 colon
[58] = test system: HCT-15 colon
[59] = test system: SK-OV-3 ovarian

SMILES: CCOc1ccc(-c2cc(-c3cc(C(C)C)c(O)cc3C)nn2-c2ccc(S(N)(=O)=O)cc2)cc1
- GI50 [1]: 5.46 µM
- TGI [1]: 18.2 µM
- GI50 [2]: 7.07 µM
- TGI [2]: 19.9 µM
- GI50 [3]: 3.15 µM
- TGI [3]: 12.2 µM
- GI50 [4]: 7.24 µM
- TGI [4]: 21.6 µM
- GI50 [5]: 5.3 µM
- TGI [5]: 17.8 µM
- GI50 [6]: 5.21 µM
- TGI [6]: 18.1 µM
- GI50 [7]: 4.81 µM
- TGI [7]: 37.3 µM
- GI50 [8]: 2.39 µM
- TGI [8]: 6.76 µM
- GI50 [9]: 5.65 µM
- TGI [9]: 18.3 µM
- GI50 [10]: 4.88 µM
- TGI [10]: 19.2 µM
- GI50 [11]: 7.28 µM
- TGI [11]: 20.8 µM
- GI50 [12]: 2.75 µM
- TGI [12]: 11 µM
- GI50 [13]: 15.6 µM
- TGI [13]: 29.1 µM
- GI50 [14]: 5.51 µM
- TGI [14]: 17.7 µM
- GI50 [15]: 7.22 µM
- TGI [15]: 21.4 µM
- GI50 [16]: 17.1 µM
- TGI [16]: 31.7 µM
- GI50 [17]: 1.91 µM
- TGI [17]: 4.44 µM
- GI50 [18]: 5.94 µM
- TGI [18]: 20 µM
- GI50 [19]: 10.5 µM
- TGI [19]: 22.3 µM
- GI50 [20]: 6.66 µM
- TGI [20]: 20.1 µM
- GI50 [21]: 2.48 µM
- TGI [21]: 13 µM
- GI50 [22]: 10.4 µM
- TGI [22]: 22.5 µM
- GI50 [23]: 5.8 µM
- TGI [23]: 25.9 µM
- GI50 [24]: 11.7 µM
- TGI [24]: 24 µM
- GI50 [25]: 15.7 µM
- TGI [25]: 37 µM
- GI50 [26]: 2.93 µM
- TGI [26]: 11.4 µM
- GI50 [27]: 9.86 µM
- TGI [27]: 22.4 µM
- GI50 [28]: 11 µM
- TGI [28]: 23.4 µM
- GI50 [29]: 3.96 µM
- TGI [29]: 15.2 µM
- GI50 [30]: 2.86 µM
- TGI [30]: 13.8 µM
- GI50 [31]: 11.2 µM
- TGI [31]: 23.3 µM
- GI50 [32]: 6.86 µM
- TGI [32]: 20.5 µM
- GI50 [33]: 3.71 µM
- TGI [33]: 17 µM
- GI50 [34]: 6.78 µM
- TGI [34]: 20.3 µM
- GI50 [35]: 7.25 µM
- TGI [35]: 20.4 µM
- GI50 [36]: 4.02 µM
- TGI [36]: 17.6 µM
- GI50 [37]: 4.45 µM
- TGI [37]: 17.2 µM
- GI50 [38]: 9.37 µM
- TGI [38]: 21.3 µM
- GI50 [39]: 5.29 µM
- TGI [39]: 18.6 µM
- GI50 [40]: 4.55 µM
- TGI [40]: 15.3 µM
- GI50 [41]: 12.1 µM
- TGI [41]: 24.9 µM
- GI50 [42]: 15.4 µM
- TGI [42]: 29.5 µM
- GI50 [43]: 1.8 µM
- TGI [43]: 43.8 µM
- GI50 [44]: 15.7 µM
- TGI [44]: 29.2 µM
- GI50 [45]: 2.82 µM
- TGI [45]: 13 µM
- GI50 [46]: 4.92 µM
- TGI [46]: 18 µM
- GI50 [47]: 12.3 µM
- TGI [47]: 24.8 µM
- GI50 [48]: 13.4 µM
- TGI [48]: 26.4 µM
- GI50 [49]: 5.47 µM
- TGI [49]: 19.6 µM
- GI50 [50]: 3.47 µM
- TGI [50]: 13.4 µM
- GI50 [51]: 3.38 µM
- TGI [51]: > 100 µM
- GI50 [52]: 4.62 µM
- TGI [52]: 19.2 µM
- GI50 [53]: 7.29 µM
- TGI [53]: 21 µM
- GI50 [54]: 10.4 µM
- TGI [54]: 23.4 µM
- GI50 [55]: 5.46 µM
- TGI [55]: 18.3 µM
- GI50 [56]: 4.29 µM
- TGI [56]: 22.2 µM
- GI50 [57]: 3.87 µM
- TGI [57]: 12.7 µM
- GI50 [58]: 3.61 µM
- TGI [58]: 14.4 µM
- GI50 [59]: 10.7 µM
- TGI [59]: 22.7 µM

SMILES: CCc1ccccc1-c1nc(CN[C@@H]2C[C@@H]3C[C@H]([C@H]2C)C3(C)C)c(C)o1
- GI50 [1]: 1.74 µM
- TGI [1]: 3.3 µM
- GI50 [2]: 2.03 µM
- TGI [2]: 4.26 µM
- GI50 [3]: 1.76 µM
- TGI [3]: 3.61 µM
- GI50 [4]: 1.7 µM
- TGI [4]: 3.24 µM
- GI50 [5]: 1.77 µM
- TGI [5]: 3.15 µM
- GI50 [6]: 1.72 µM
- TGI [6]: 3.16 µM
- GI50 [7]: 2.43 µM
- TGI [7]: 6.73 µM
- GI50 [8]: 1.5 µM
- TGI [8]: 2.87 µM
- GI50 [9]: 1.66 µM
- TGI [9]: 3.02 µM
- GI50 [10]: 1.65 µM
- TGI [10]: 3.18 µM
- GI50 [11]: 2.55 µM
- TGI [11]: 7.34 µM
- GI50 [12]: 1.61 µM
- TGI [12]: 3.22 µM
- GI50 [13]: 2.01 µM
- TGI [13]: 5.08 µM
- GI50 [14]: 1.8 µM
- TGI [14]: 3.18 µM
- GI50 [15]: 2.58 µM
- TGI [15]: 11 µM
- GI50 [16]: 1.85 µM
- TGI [16]: 3.95 µM
- GI50 [17]: 1.67 µM
- TGI [17]: 3.11 µM
- GI50 [18]: 1.69 µM
- TGI [18]: 3.2 µM
- GI50 [19]: 1.77 µM
- TGI [19]: 3.18 µM
- GI50 [20]: 1.68 µM
- TGI [20]: 3.13 µM
- GI50 [21]: 12 µM
- TGI [21]: 24.4 µM
- GI50 [22]: 1.66 µM
- TGI [22]: 3.23 µM
- GI50 [23]: 1.83 µM
- TGI [23]: 4.16 µM
- GI50 [24]: 1.72 µM
- TGI [24]: 3.11 µM
- GI50 [25]: 2.11 µM
- TGI [25]: 5 µM
- GI50 [26]: 1.71 µM
- TGI [26]: 3.17 µM
- GI50 [27]: 1.62 µM
- TGI [27]: 3.12 µM
- GI50 [28]: 1.49 µM
- TGI [28]: 2.84 µM
- GI50 [29]: 2.58 µM
- TGI [29]: 7.01 µM
- GI50 [30]: 3.25 µM
- TGI [30]: 10.6 µM
- GI50 [31]: 1.71 µM
- TGI [31]: 3.5 µM
- GI50 [32]: 1.96 µM
- TGI [32]: 4.38 µM
- GI50 [33]: 1.73 µM
- TGI [33]: 3.81 µM
- GI50 [34]: 1.7 µM
- TGI [34]: 3.12 µM
- GI50 [35]: 1.69 µM
- TGI [35]: 3.19 µM
- GI50 [36]: 2.23 µM
- TGI [36]: 5.72 µM
- GI50 [38]: 1.72 µM
- TGI [38]: 3.17 µM
- GI50 [39]: 1.6 µM
- TGI [39]: 3.06 µM
- GI50 [40]: 1.61 µM
- TGI [40]: 2.96 µM
- GI50 [41]: 1.7 µM
- TGI [41]: 3.26 µM
- GI50 [42]: 1.73 µM
- TGI [42]: 3.4 µM
- GI50 [43]: 2.11 µM
- TGI [43]: 5.33 µM
- GI50 [44]: 1.59 µM
- TGI [44]: 3.04 µM
- GI50 [45]: 1.37 µM
- TGI [45]: 2.85 µM
- GI50 [46]: 1.83 µM
- TGI [46]: 3.81 µM
- GI50 [47]: 1.77 µM
- TGI [47]: 3.4 µM
- GI50 [48]: 1.54 µM
- TGI [48]: 2.95 µM
- GI50 [49]: 1.8 µM
- TGI [49]: 4.38 µM
- GI50 [50]: 1.85 µM
- TGI [50]: 3.57 µM
- GI50 [51]: 2.34 µM
- TGI [51]: 6.54 µM
- GI50 [52]: 1.88 µM
- TGI [52]: 4.03 µM
- GI50 [53]: 2.53 µM
- TGI [53]: 8.36 µM
- GI50 [54]: 1.65 µM
- TGI [54]: 3.28 µM
- GI50 [55]: 2.13 µM
- TGI [55]: 8.45 µM
- GI50 [56]: 2.19 µM
- TGI [56]: 5.27 µM
- GI50 [57]: 1.65 µM
- TGI [57]: 3.07 µM
- GI50 [58]: 1.72 µM
- TGI [58]: 3.15 µM
- GI50 [59]: 14.2 µM
- TGI [59]: 28.9 µM
